According to EP4671258A1, “RADIOACTIVE LABEL OF RISEDRONIC ACID DERIVATIVE, AND PRECURSOR COMPOUND THEREOF, AND PREPARATION METHOD THEREFOR AND USE THEREOF” (The Affiliated Hospital of Southwest Medical University, priority 2023, dated 2024):

System: tumor-bearing mice
Experiment: Comparative PET/CT imaging experiment in tumor-bearing mice (Test Example 2)
Type: in vivo, nude mice
Settings: PET/CT whole-body imaging 2 hours after tail vein injection of about 0.1 ml (1 mCi/ml); MDA-MB-231 bone metastasis model
Protocol: In this test example, the PET/CT imaging experiment of the ^68Ga-labeled compound represented by Formula II-1 of the present disclosure in tumor-bearing mice was disclosed. • (1) Establishment of tumor-bearing mouse model: 12 SPF female nude mice were prepared. After isoflurane anesthesia, the skin around the left knee joint was disinfected. The left hind limb was bent and an insulin needle (29G needle) was used to insert vertically into the femur from the concave point of the femoral head joint fossa. The needle was slowly rotated into the bone marrow cavity and 25µl (containing about 2×10^6 cells) of MDA-MB-231 (human breast cancer cells, from ATCC) cell culture medium was injected. After disinfection, the hole was sealed with sterile bone wax, and the animal was placed on a 37°C hot plate to rewarm. After recovery, it was returned to the cage for continued feeding. • (2) Verification of tumor-bearing mouse model: 4 weeks after inoculation, 12 nude mice were scanned using Micro-CT respectively.
In this test example, a comparative PET/CT imaging experiment of the ^68Ga-labeled compound represented by Formula II-1 of the present disclosure and ^68Ga-DOTA-ibandronic acid in tumor-bearing mice was disclosed. The ^68Ga-DOTA-ibandronic acid was prepared according to the method No.5 in Table 1 in the description of the published Chinese patent application with application number 202111419244.X.
Four successfully modeled tumor-bearing mice were taken, in which two mice were injected with about 0.1 ml of the freshly prepared ^68Ga-labeled compound represented by Formula II-1 (with a concentration of 1 mCi/ml) via the tail vein, and the other two mice were injected with about 0.1 ml of the freshly prepared ^68Ga-DOTA-ibandronic acid (with a concentration of 1 mCi/ml) via the tail vein. PET/CT whole-body imaging was performed 2 hours after injection.
The T/N value was calculated according to the following formula: T/N value = SUVmax of lesion/SUVmax of background tissue [formula] Table 1: Imaging results of tumor-bearing mice

- Head SUVmax: 0.783
- Head SUVmin: 0.230
- Lesion SUVmax: 0.647
- Lesion SUVmin: 0.139
- Liver SUVmax: 0.067
- Liver SUVmin: 0.046
Substance: ^68Ga-DOTA-ibandronic acid
